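Assay format: 96-well plates, 48-hour exposure. TGI: total growth inhibition.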
Experiments:
Assay in all cases: NCI tumour cell line growth inhibition, 48 h
OVCAR-8 ovarian = test system: OVCAR-8 ovarian
HOP-92 NSCLC = test system: HOP-92 NSCLC
HOP-62 NSCLC = test system: HOP-62 NSCLC
RPMI-8226 leukemia = test system: RPMI-8226 leukemia
HCT-15 colon = test system: HCT-15 colon
UACC-257 melanoma = test system: UACC-257 melanoma
HOP-18 NSCLC = test system: HOP-18 NSCLC
SW-620 colon = test system: SW-620 colon
SN12C renal = test system: SN12C renal
UACC-62 melanoma = test system: UACC-62 melanoma
SF-295 CNS = test system: SF-295 CNS
NCI-H23 lung = test system: NCI-H23 lung
NCI/ADR-RES ovarian = test system: NCI/ADR-RES ovarian
DLD-1 colon = test system: DLD-1 colon
EKVX NSCLC = test system: EKVX NSCLC
KM12 colon = test system: KM12 colon
K-562 leukemia = test system: K-562 leukemia
OVCAR-3 ovarian = test system: OVCAR-3 ovarian
KM20L2 colon = test system: KM20L2 colon
OVCAR-4 ovarian = test system: OVCAR-4 ovarian
SN12K1 renal = test system: SN12K1 renal
HL-60(TB) leukemia = test system: HL-60(TB) leukemia
DMS 273 small cell lung = test system: DMS 273 small cell lung
NCI-H226 lung = test system: NCI-H226 lung
MALME-3M melanoma = test system: MALME-3M melanoma
SK-MEL-28 melanoma = test system: SK-MEL-28 melanoma
NCI-H460 lung = test system: NCI-H460 lung
M19-MEL melanoma = test system: M19-MEL melanoma
A498 renal = test system: A498 renal
SK-MEL-5 melanoma = test system: SK-MEL-5 melanoma
CAKI-1 renal = test system: CAKI-1 renal
U251 CNS = test system: U251 CNS
HCC-2998 colon = test system: HCC-2998 colon
IGROV1 ovarian = test system: IGROV1 ovarian
SF-539 CNS = test system: SF-539 CNS
MOLT-4 leukemia = test system: MOLT-4 leukemia
OVCAR-5 ovarian = test system: OVCAR-5 ovarian
XF 498 CNS = test system: XF 498 CNS
A549 NSCLC = test system: A549 NSCLC
SNB-75 CNS = test system: SNB-75 CNS
P388/ADR leukemia = test system: P388/ADR leukemia
CCRF-CEM leukemia = test system: CCRF-CEM leukemia
HCT-116 colon = test system: HCT-116 colon
LOX IMVI melanoma = test system: LOX IMVI melanoma
UO-31 renal = test system: UO-31 renal
SF-268 CNS = test system: SF-268 CNS
SK-OV-3 ovarian = test system: SK-OV-3 ovarian
SNB-78 CNS = test system: SNB-78 CNS
P388 leukemia = test system: P388 leukemia
SNB-19 CNS = test system: SNB-19 CNS
HT29 colon = test system: HT29 colon
SK-MEL-2 melanoma = test system: SK-MEL-2 melanoma
786-0 renal = test system: 786-0 renal
TK-10 renal = test system: TK-10 renal
SR leukemia = test system: SR leukemia
M14 melanoma = test system: M14 melanoma
LXFL 529 NSCLC = test system: LXFL 529 NSCLC
COLO 205 colon = test system: COLO 205 colon
DMS 114 small cell lung = test system: DMS 114 small cell lung
RXF 393 renal = test system: RXF 393 renal
NCI-H522 lung = test system: NCI-H522 lung
RXF-631 renal = test system: RXF-631 renal
ACHN renal = test system: ACHN renal

O=C1N[C@@H]2C(=C[C@H](O)[C@@H](O)[C@H]2O)c2cc3c(c(O)c21)OCO3
TGI (OVCAR-8 ovarian): 0.0613 µM | TGI (HOP-92 NSCLC): 0.272 µM | TGI (HOP-62 NSCLC): 0.0538 µM | TGI (RPMI-8226 leukemia): 0.0858 µM | TGI (HCT-15 colon): 8.16 µM | TGI (UACC-257 melanoma): 0.088 µM | TGI (HOP-18 NSCLC): 0.281 µM | TGI (SW-620 colon): 2.67 µM | TGI (SN12C renal): 0.122 µM | TGI (UACC-62 melanoma): 0.0587 µM | TGI (SF-295 CNS): 0.245 µM | TGI (NCI-H23 lung): 0.129 µM | TGI (NCI/ADR-RES ovarian): 0.0972 µM | TGI (DLD-1 colon): 0.0751 µM | TGI (EKVX NSCLC): 0.0743 µM | TGI (KM12 colon): 0.405 µM | TGI (K-562 leukemia): 0.0955 µM | TGI (OVCAR-3 ovarian): 0.0639 µM | TGI (KM20L2 colon): 0.315 µM | TGI (OVCAR-4 ovarian): 0.537 µM | TGI (SN12K1 renal): 0.1 µM | TGI (HL-60(TB) leukemia): 0.0862 µM | TGI (DMS 273 small cell lung): 0.145 µM | TGI (NCI-H226 lung): 0.0876 µM | TGI (MALME-3M melanoma): 0.0535 µM | TGI (SK-MEL-28 melanoma): 0.0944 µM | TGI (NCI-H460 lung): 0.119 µM | TGI (M19-MEL melanoma): 0.0771 µM | TGI (A498 renal): 0.106 µM | TGI (SK-MEL-5 melanoma): 0.0774 µM | TGI (CAKI-1 renal): 0.0735 µM | TGI (U251 CNS): 0.394 µM | TGI (HCC-2998 colon): 0.0681 µM | TGI (IGROV1 ovarian): 0.151 µM | TGI (SF-539 CNS): 0.0486 µM | TGI (MOLT-4 leukemia): 0.296 µM | TGI (OVCAR-5 ovarian): 0.294 µM | TGI (XF 498 CNS): 0.0541 µM | TGI (A549 NSCLC): 0.306 µM | TGI (SNB-75 CNS): 0.0813 µM | TGI (P388/ADR leukemia): 0.45 µM | TGI (CCRF-CEM leukemia): 0.51 µM | TGI (HCT-116 colon): 0.0569 µM | TGI (LOX IMVI melanoma): 0.065 µM | TGI (UO-31 renal): 0.0955 µM | TGI (SF-268 CNS): 0.116 µM | TGI (SK-OV-3 ovarian): 0.246 µM | TGI (SNB-78 CNS): 0.399 µM | TGI (P388 leukemia): 0.969 µM | TGI (SNB-19 CNS): 0.0665 µM | TGI (HT29 colon): 0.172 µM | TGI (SK-MEL-2 melanoma): 0.0499 µM

N#CC1(C#N)C(c2ccccc2)C=CC12OCCCO2 (configuration not stated)
TGI (786-0 renal): > 100 µM | TGI (OVCAR-8 ovarian): 43 µM | TGI (HOP-92 NSCLC): > 100 µM | TGI (HOP-62 NSCLC): > 100 µM | TGI (RPMI-8226 leukemia): 91.7 µM | TGI (UACC-257 melanoma): > 100 µM | TGI (TK-10 renal): > 100 µM | TGI (HOP-18 NSCLC): > 100 µM | TGI (SW-620 colon): > 100 µM | TGI (SN12C renal): > 100 µM | TGI (UACC-62 melanoma): > 100 µM | TGI (SF-295 CNS): > 100 µM | TGI (NCI-H23 lung): 91.4 µM | TGI (DLD-1 colon): 95.4 µM | TGI (SR leukemia): > 100 µM | TGI (EKVX NSCLC): > 100 µM | TGI (KM12 colon): > 100 µM | TGI (K-562 leukemia): > 100 µM | TGI (OVCAR-3 ovarian): > 100 µM | TGI (KM20L2 colon): > 100 µM | TGI (OVCAR-4 ovarian): > 100 µM | TGI (HL-60(TB) leukemia): 92.3 µM | TGI (DMS 273 small cell lung): > 100 µM | TGI (NCI-H226 lung): > 100 µM | TGI (M14 melanoma): > 100 µM | TGI (MALME-3M melanoma): > 100 µM | TGI (SK-MEL-28 melanoma): > 100 µM | TGI (NCI-H460 lung): > 100 µM | TGI (LXFL 529 NSCLC): 95.2 µM | TGI (M19-MEL melanoma): > 100 µM | TGI (A498 renal): > 100 µM | TGI (SK-MEL-5 melanoma): > 100 µM | TGI (CAKI-1 renal): 74.1 µM | TGI (U251 CNS): > 100 µM | TGI (HCC-2998 colon): > 100 µM | TGI (COLO 205 colon): 93.6 µM | TGI (DMS 114 small cell lung): 67.8 µM | TGI (IGROV1 ovarian): > 100 µM | TGI (RXF 393 renal): 49.2 µM | TGI (SF-539 CNS): 45.9 µM | TGI (MOLT-4 leukemia): 98.1 µM | TGI (OVCAR-5 ovarian): > 100 µM | TGI (XF 498 CNS): > 100 µM | TGI (A549 NSCLC): > 100 µM | TGI (SNB-75 CNS): > 100 µM | TGI (NCI-H522 lung): 32.6 µM | TGI (CCRF-CEM leukemia): 88.7 µM | TGI (HCT-116 colon): > 100 µM | TGI (LOX IMVI melanoma): > 100 µM | TGI (UO-31 renal): > 100 µM | TGI (RXF-631 renal): > 100 µM | TGI (SF-268 CNS): > 100 µM | TGI (SK-OV-3 ovarian): > 100 µM | TGI (ACHN renal): > 100 µM | TGI (SNB-78 CNS): > 100 µM | TGI (SNB-19 CNS): > 100 µM | TGI (HT29 colon): > 100 µM | TGI (SK-MEL-2 melanoma): > 100 µM

CCOC(=O)/C(I)=C/c1cc(OC)c(OC)c(OC)c1
TGI (786-0 renal): 33 µM | TGI (OVCAR-8 ovarian): 38.8 µM | TGI (HOP-92 NSCLC): 27.1 µM | TGI (HOP-62 NSCLC): 96.1 µM | TGI (RPMI-8226 leukemia): 21.1 µM | TGI (HCT-15 colon): 17.1 µM | TGI (UACC-257 melanoma): 25.7 µM | TGI (TK-10 renal): 35.1 µM | TGI (HOP-18 NSCLC): 24 µM | TGI (SW-620 colon): 11.6 µM | TGI (SN12C renal): 24.6 µM | TGI (UACC-62 melanoma): 16.1 µM | TGI (SF-295 CNS): 54.4 µM | TGI (NCI-H23 lung): 14.1 µM | TGI (DLD-1 colon): 35.2 µM | TGI (SR leukemia): 8.8 µM | TGI (EKVX NSCLC): 42.9 µM | TGI (KM12 colon): 19.2 µM | TGI (K-562 leukemia): > 100 µM | TGI (OVCAR-3 ovarian): 14.1 µM | TGI (KM20L2 colon): 12.4 µM | TGI (OVCAR-4 ovarian): 52.4 µM | TGI (HL-60(TB) leukemia): 26.1 µM | TGI (DMS 273 small cell lung): 22.7 µM | TGI (NCI-H226 lung): 25.9 µM | TGI (M14 melanoma): 14.7 µM | TGI (MALME-3M melanoma): 26.2 µM | TGI (SK-MEL-28 melanoma): 7.88 µM | TGI (NCI-H460 lung): > 100 µM | TGI (LXFL 529 NSCLC): 26.8 µM | TGI (M19-MEL melanoma): 19.3 µM | TGI (A498 renal): 91.3 µM | TGI (SK-MEL-5 melanoma): 24.5 µM | TGI (CAKI-1 renal): 16.3 µM | TGI (U251 CNS): 18.3 µM | TGI (HCC-2998 colon): 27.8 µM | TGI (COLO 205 colon): 18.2 µM | TGI (DMS 114 small cell lung): 9.49 µM | TGI (IGROV1 ovarian): 93.7 µM | TGI (SF-539 CNS): > 100 µM | TGI (MOLT-4 leukemia): 40.3 µM | TGI (OVCAR-5 ovarian): 20 µM | TGI (XF 498 CNS): 27.5 µM | TGI (A549 NSCLC): 22.5 µM | TGI (SNB-75 CNS): > 100 µM | TGI (NCI-H522 lung): 12.9 µM | TGI (CCRF-CEM leukemia): 8.6 µM | TGI (HCT-116 colon): 12.5 µM | TGI (LOX IMVI melanoma): 5.01 µM | TGI (UO-31 renal): 19.1 µM | TGI (SF-268 CNS): 6.73 µM | TGI (SK-OV-3 ovarian): > 100 µM | TGI (ACHN renal): 28.2 µM | TGI (SNB-78 CNS): > 100 µM | TGI (SNB-19 CNS): 31.8 µM | TGI (HT29 colon): 15.1 µM | TGI (SK-MEL-2 melanoma): > 100 µM

Reference: PubChem BioAssay (NCI)
